Experimental data from patent publication US5750754A, “Heterocyclic compounds” (Zeneca Limited, priority 1993, dated 1998).
Where a name gives a salt, the structure may show the parent alone. Read-outs that look alike come from different tables or passages of the source.

Legend:
[1] = target: T1, human, citrated, platelet-rich plasma (Homo sapiens, UniProt P05106+P08514); assay: Test (a): inhibition of ADP stimulated platelet aggregation (Born); format: cell-based; settings: ADP induced aggregation of human platelet-rich plasma
T1 construct: aggregating human, citrated, platelet-rich plasma; endogenous in cells; host or cells: human platelets in citrated platelet-rich plasma
T1 sequence (P08514 32-887 limits assumed): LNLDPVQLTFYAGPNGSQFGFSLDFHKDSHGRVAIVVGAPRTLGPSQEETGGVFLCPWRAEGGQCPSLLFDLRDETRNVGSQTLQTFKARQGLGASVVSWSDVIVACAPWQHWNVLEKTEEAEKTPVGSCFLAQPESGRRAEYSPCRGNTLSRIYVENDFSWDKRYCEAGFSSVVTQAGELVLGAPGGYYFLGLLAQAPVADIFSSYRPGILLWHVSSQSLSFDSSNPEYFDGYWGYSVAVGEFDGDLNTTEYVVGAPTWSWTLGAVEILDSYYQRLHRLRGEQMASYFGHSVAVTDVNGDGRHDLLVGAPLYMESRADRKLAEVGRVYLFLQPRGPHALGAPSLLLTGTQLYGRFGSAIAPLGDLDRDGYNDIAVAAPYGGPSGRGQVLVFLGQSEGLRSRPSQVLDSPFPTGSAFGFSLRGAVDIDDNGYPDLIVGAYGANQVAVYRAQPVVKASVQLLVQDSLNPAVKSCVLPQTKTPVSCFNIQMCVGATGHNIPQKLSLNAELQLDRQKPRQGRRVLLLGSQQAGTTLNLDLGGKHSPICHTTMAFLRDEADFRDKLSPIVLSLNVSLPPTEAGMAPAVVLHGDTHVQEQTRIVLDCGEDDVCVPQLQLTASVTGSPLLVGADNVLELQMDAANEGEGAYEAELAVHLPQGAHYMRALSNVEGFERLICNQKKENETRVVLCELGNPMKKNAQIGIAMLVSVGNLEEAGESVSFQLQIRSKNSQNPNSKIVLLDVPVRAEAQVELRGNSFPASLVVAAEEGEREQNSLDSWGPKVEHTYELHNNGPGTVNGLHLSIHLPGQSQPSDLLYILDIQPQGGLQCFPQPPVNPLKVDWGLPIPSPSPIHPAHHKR
T1 sequence (P08514 891-1039 limits assumed): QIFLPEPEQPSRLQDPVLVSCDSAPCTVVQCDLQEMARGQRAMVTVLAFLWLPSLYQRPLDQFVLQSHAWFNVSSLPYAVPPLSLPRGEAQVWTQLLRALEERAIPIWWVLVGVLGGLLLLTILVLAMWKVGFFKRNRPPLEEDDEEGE
T1 sequence (P05106 27-788): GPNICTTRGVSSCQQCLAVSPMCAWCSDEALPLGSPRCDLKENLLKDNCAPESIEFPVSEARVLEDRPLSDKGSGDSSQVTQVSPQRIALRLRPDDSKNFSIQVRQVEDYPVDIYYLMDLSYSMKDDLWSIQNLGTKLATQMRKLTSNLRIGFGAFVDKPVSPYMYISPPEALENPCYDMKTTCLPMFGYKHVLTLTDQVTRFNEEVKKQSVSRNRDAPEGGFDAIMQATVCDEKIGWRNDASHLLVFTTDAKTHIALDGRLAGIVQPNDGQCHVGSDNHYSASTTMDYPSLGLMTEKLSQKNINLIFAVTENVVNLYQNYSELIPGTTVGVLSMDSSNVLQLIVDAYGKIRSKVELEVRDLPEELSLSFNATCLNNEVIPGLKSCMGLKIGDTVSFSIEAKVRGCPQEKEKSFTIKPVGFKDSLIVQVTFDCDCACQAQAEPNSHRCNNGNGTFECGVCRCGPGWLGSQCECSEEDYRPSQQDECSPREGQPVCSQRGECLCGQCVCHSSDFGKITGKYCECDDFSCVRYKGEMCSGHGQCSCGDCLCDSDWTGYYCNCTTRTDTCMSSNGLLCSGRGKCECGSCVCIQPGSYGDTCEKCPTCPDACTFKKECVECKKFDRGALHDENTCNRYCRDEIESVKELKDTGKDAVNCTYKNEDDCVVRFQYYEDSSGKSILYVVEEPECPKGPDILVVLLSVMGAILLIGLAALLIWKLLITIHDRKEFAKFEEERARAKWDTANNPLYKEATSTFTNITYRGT
Text: (i) aggregating human, citrated, platelet-rich plasma by addition of adenosine diphosphate so as to generate a dose-response curve;
(ii) generating a dose-response curve for ADP stimulated platelet aggregation in the presence of increasing amounts of a test compound (generally in the range 10-^5 M to 10-^10 M); and
(iii) calculating a pA2 value indicating potency of platelet aggregation inhibition for the test compound, averaged over several concentrations, from the calculated 50% response value for ADP aggregation in the presence and absence of the test compound.

[2] = target: T2, purified human platelet fibrinogen receptor (GPIIb/IIIa) (Homo sapiens, UniProt P05106+P08514); assay: Test (b): GPIIb/IIIa ELISA, inhibition of biotinylated fibrinogen binding; settings: purified human platelet GPIIb/IIIa, ELISA
T2 construct: is isolated from human platelet lysates; from tissue
T2 sequence (P08514 32-887 limits assumed): as the sequence (P08514 32-887 limits assumed) above
T2 sequence (P08514 891-1039 limits assumed): as the sequence (P08514 891-1039 limits assumed) above
T2 sequence (P05106 27-788): as the sequence (P05106 27-788) above
Method: (i) Preparation of human platelet lysates.
Platelet rich plasma (PRP) is harvested by centrifugation (1000 rpm, 15 mins) of whole blood anticoaoulated with acid citrate dextrose (trisodium citrate 85 mM, citric acid 70 mM, d-glucose 110 mM) 1 part to 6 parts blood. Prostacyclin (PGI2, 1 μM) is added to the PRP before centrifugation (2400 pm, 15 mins) and the resulting pellet is resuspended in modified Tyrodes' solution (NaCl 130 mM, KCl 26 mM, NaHCO3 12 mM, NaH2 PO4 0.5 mM, MgCl2 1 mM, CaCl2 20 mM, Glucose 12 mM, HEPES 5 mM) containing bovine serum albumin 3.5 g/L, PGI2 1 μM and hirudin 0.5 U/ml. The platelet suspension is centrifuged (2400 rpm, 15 mins) and the resultant pellet resuspended in 500 μl of lysis buffer (octyl glucoside 50 mM, HEPES 10 mM, NaCl 150 mM, CaCl2 1 mM, MgCl2 1 mM, PMSF 1 mM, NEM 10 mM, leupeptin 0.1 mM), agitated at 4° C. for 15 minutes then centrifuged at 24000 rpm, 15 mins. The supernatant is stored at 4° C. and the pellet re-suspended in 500 μl of lysis buffer. The centrifugation process is repeated a further 3 tlimes, the pooled supernatants being stored at -70° C.
(ii) Receptor purification.
GP Ilb/Ila is isolated from human platelet lysates using a 2 ml peptide (KYGRGDS) coupled CNBr activated Sepharose affinity column. A 1.5 ml volume of platelet lysate is placed on the column and allowed to stand overnight at 4° C. Buffer (30 mls, octyl gluicoside 25 mM, HEPES 10 mM, NaCl 150 mM, CaCl2 1 mM, MgCl2 1 mM, PMSF 1 mM, NEM 10 mM, leupeptin 0.1 mM) is passed through the column and 2 ml fractions are collected throughout. GPIIb/IIIa is eluted with 12 mls of buffer containing HHLGGAKQAGDV (2 mg/ml, pH 7.5), the column is washed using 4 mls buffer and the remaining GPIIb/IIIa eluted using 12 mls buffer containing GRGDSPG (1 mg/ml pH 7.5). The column is finally washed using 20 mls of buffer and can be used for up to three such preparations. Fractions containing FGPIIb/IIIa are identified using gel electrophoresis and immunoblotting, pooled and stored at -70° C.
96 well microtitre plates are coated with 100 μl purified human platelet fibrinogen receptor (GPIIb/IIIa) diluted in coating buffer (Tris-HCl 20 mM, NaCl 150 mM, CaCl2 1 mM, pH 7.4) and left overnight at 4° C. The plates are washed using washing buffer (Tris-HCl 50 mM, NaCl 100 mM, CaCl2 2 mM, pH 7.4) and non-specific binding, blocked by the addition of 200 μl 2% BSA (2 hours, 30° C.). The plates are washed prior to incubation (2 hours, 30° C.) with 100 μl biotinylated fibrinogen ([…]) containing either vehicle or test compound. The plates are washed, incubated with streptavidin (5 μg/ml, 1 hour, ambient temperature), then washed again before the addition of 100 μl biotinylated horse radish peroxidase (0.1 μg/ml, 1 hour, ambient temperature). The plates are then washed and equal volumes of peroxidase substrate (3, 5, tetramethyl benzidine 0.4 g/l) and H2 O2 (0.02%) are mixed together immediately before addition of 150 μl to each well. Colour is allowed to develop for 10-15 mins before optical densities are read at 650 nm.
The concentration of compound required to cause 50% inhibition of biotinylated fibrinogen binding, is calculated and expressed as a pIC50 (-log(IC50)).

[3] = read-out: Test (a): pA2 value indicating potency of platelet aggregation inhibition (converted)
[4] = read-out: Test (b): pIC50 (-log(IC50)), 50% inhibition of biotinylated fibrinogen binding to GPIIb/IIIa (converted)
[5] = Test (a): pA2 value indicating potency of platelet aggregation inhibition
[6] = Test (b): pIC50 (-log(IC50)), 50% inhibition of biotinylated fibrinogen binding to GPIIb/IIIa

Kb [1, 3] [nM] | IC50 [2, 4] [nM] | Test (b): pIC50 (-log(IC50)), 50% inhibition of biotinylated fibrinogen binding to GPIIb/IIIa [2] | Compound | Kb [1, 5] [nM] | IC50 [2, 6] [nM]
1000 | 100 | – | O=C(O)COc1c(Cl)cc(C(=O)CN2CCN(c3ccncc3)CC2)cc1Cl [Example 123, 4-[2-[4-(4-Pyridyl)piperazin-1-yl]acetyl]-2,6-dichlorophenoxyacetic acid, dihydrochloride] | – | –
25100 | 31600 | – | CCOC(=O)c1ccc(C(=O)CN2CCN(c3ccncc3)CC2)cc1 [Example 131, Ethyl 4-[2-[4-(4-pyridyl)piperazin-1-yl]acetyl]benzoate] | – | –
63.1 to 158 | 158 to 501 | – | Cc1ccc(S(=O)(=O)NCc2ccc(C(=O)CN3CCN(c4ccncc4)CC3)cc2)cc1 [Example 21, N-[4-[2-[4-(4-Pyridyl)piperazin-1-yl]acetyl]phenyl]methyl-4-methylphenylsulphonamide] | – | –
50.1 to 79.4 | 25.1 | 7.6 | O=C(O)COc1ccc(C(=O)CN2CCN(c3ccncc3)CC2)cc1 [Example 2] | – | –
316 | 2510 | – | Cc1ccc(S(=O)(=O)NCC2CCN(C(=O)CN3CCN(c4ccncc4)CC3)CC2)cc1 [Example 222, N-[1-[2-[4-(4-Pyridyl)piperazin-1-yl]acetyl]piperidin-4-ylmethyl]-4-methylphenylsulphonamide] | – | –
2000 | 2510 | – | COC(=O)COc1c(Cl)cc(C(=O)CN2CCN(c3ccncc3)CC2)cc1Cl [Example 116] | – | –
200 | 398 | – | COC(=O)COc1ccc(C(=O)CN2CCN(c3ccncc3)CC2)c(C)c1 [Example 118, Methyl 4-[2-[4-(4-pyridyl)piperazin-1-yl]acetyl]-3-methylphenoxyacetate] | – | –
12600 | 3980 | – | COC(=O)CCNC(=O)c1ccc(N2CCN(c3ccncc3)CC2)nc1 [Example 69, Methyl 3-[6-[4-(4-pyridyl)piperazin-1-yl]pyrid-3-ylcarboxamido]propionate] | – | –
316 | 631 | – | O=C(O)CCC1CCN(C(=O)CN2CCN(c3ccncc3)CC2)CC1 [Example 109, 3-[1-[2-[4-(4-Pyridyl)piperazin-1-yl]acetyl]piperidin-4-yl]propanoic acid] | – | –
200 | 50.1 | – | O=C(O)COC1CCN(C(=O)CN2CCN(c3ccncc3)CC2)CC1 [Example 32, 2-[1-[2-[4-(4-Pyridyl)piperazin-1-yl]acetyl]piperidin-4-yloxy]acetic acid] | – | –
7940 | 501 | – | O=C(O)C=Cc1ccc(CN2CCN(c3ccncc3)CC2)cc1 [Example 77, 4-[[4-(4-Pyridyl)piperazin-1-yl]methylene]cinnamic acid] | – | –
3980 | 15800 | – | CCCCS(=O)(=O)NCc1ccc(CCN2CCN(c3ccncc3)CC2)cc1 [Example 185, N-[4-[2-[4-(4-Pyridyl)piperazin-1-yl]ethyl]phenyl]methyl-1-butanesulphonamide] | – | –
10000 | 2510 | – | Cc1cc(N2CCN(CC(=O)c3ccc(OCC(=O)O)cc3)CC2)cc(C)n1 [Example 154, 4-[2-[4-(2,6-Dimethylpyrid-4-yl)piperazin-1-yl]actyl]phenoxyacetic acid, dihydrobromide] | – | –
10000 | > 100000 | – | CCOC(=O)CCCCOc1ccc(N2CCN(c3ccncc3)CC2)cc1 [Example 52] | – | –

Further lines, the compound ahead of its results:

Compound | Kb [1, 3] [nM] | IC50 [2, 4] [nM] | Test (b): pIC50 (-log(IC50)), 50% inhibition of biotinylated fibrinogen binding to GPIIb/IIIa [2] | Kb [1, 5] [nM] | IC50 [2, 6] [nM]
COC(=O)COc1ccc(OCCC2CCN(c3ccncc3)CC2)cc1 [Example 159, Methyl 4-[2-[1-(4-pyridyl)piperidin-4-yl]ethoxy]phenoxyacetate] | 501 | 2000 | – | – | –
O=C(O)COc1ccc(NC(=O)C2CCN(c3ccncc3)CC2)cc1 [Example 164] | 7.94 | 39.8 to 63.1 | – | – | –
CCCCS(=O)(=O)N[C@@H](Cc1ccc(OCCC2CCN(c3ccncc3)CC2)cc1)C(=O)OC [Example 35, Methyl 2-S-(n-butylsulphonylamino)-3-[4-[2-[1-(4-pyridyl)piperidin-4-yl]ethoxy]phenyl]propionate] | 398 | 63.1 | – | – | –
COC(=O)COc1ccc2c(c1)CCC(N1CCN(c3ccncc3)CC1)C2=O (stereo not shown) [Example 80, Methyl 2-[4-(4-pyridyl)piperazin-1-yl]tetralone-6-oxyacetate] | – | – | – | 251 | 398
O=C(O)C[C@H](NC(=O)CNC(=O)CN1CCN(c2ccncc2)CC1)C(=O)N[C@@H](Cc1ccccc1)C(=O)O [Example 40] | 79.4 | 20 | – | – | –
COC(=O)[C@H](Cc1ccc(OCCC2CCN(c3ccncc3)CC2)cc1)NS(=O)(=O)Cc1ccccc1 [Example 86, Methyl 2-S-(benzylsulphonylamino)-3-[4-[2-[1-(4-pyridyl)piperidin-4-yl]ethoxy]phenyl]propionate] | 3980 | 200 | – | – | –
O=C(O)COc1ccc2c(=O)c(N3CCN(c4ccncc4)CC3)cn(Cc3ccccc3)c2c1 [Example 49, [1-Benzyl-3-[4-(4-pyridyl)piperazin-1-yl]-4-quinolon-7-yl]oxyacetic acid trifluoroacetate salt] | 79.4 | 6.31 | – | – | –
CCCCS(=O)(=O)N[C@@H](Cc1ccc(OCCCN(C)c2ccncc2)cc1)C(=O)OC [Example 95, Methyl-2-S-(n-butylsulphonylamino)-3-[3-(N-methyl-N-4-pyridyl)aminopropoxy]phenylpropionate] | 10000 | 7940 | – | – | –
O=C(O)COc1ccc(OCC2CCN(c3ccncc3)CC2)cc1 [Example 158, 4-[1-(4-Pyridyl)piperidin-4-yl]methoxyphenoxyacetic acid.] | 631 | 100 | – | – | –
CCCCC(=O)N[C@@H](Cc1ccc(OCCC2CCN(c3ccncc3)CC2)cc1)C(=O)OC [Example 91, Methyl 2-S-(pentanoylamino)-3-[4-[2-[1-(4-pyridyl)piperidin-4-yl]ethoxy]phenyl]propionate] | 158 | 200 | – | – | –
COC(=O)[C@H](Cc1ccc(OCCC2CCN(c3ccncc3)CC2)cc1)NS(=O)(=O)c1ccc(C)cc1 [Example 87, Methyl 2-S-(4-methylphenylsulphonylamino)-3-[4-[2-[1-(4-pyridyl)piperidin-4-yl]ethoxy]phenyl]propionate] | 2510 | 63.1 | – | – | –
CCCCC(=O)N[C@@H](Cc1ccc(OCC2CCN(c3ccncc3)CC2)cc1)C(=O)OC [Example 92, Methyl 2-S-(pentanoylamino)-3-[4-[1-(4-pyridyl)piperidin-4-yl]methoxyphenyl]propionate] | 2000 | 79.4 | – | – | –
CC(C(=O)c1ccc(OCC(=O)O)c(OCC(=O)O)c1)N1CCN(c2ccncc2)CC1 (stereo not shown) [Example 79, 4-[2-[(4-Pyridyl)piperazin-1-yl]-2-methyl]acetyl-1,2-diphenoxydiacetic acid] | – | – | – | 12.6 | 3.16
